Results taken from patent US8410138B2, “Compounds for activating TGF-beta signaling” (The Board of Trustees of the Leland Stanford Junior …, priority 2007, dated 2013).
pIC50: −log10 of the molar value. Like-named read-outs stand apart in the source and are kept apart here.

Experiments:
[1] = test system: TGF-β signaling (SBE-SEAP reporter) in MFB-F11 cells; type: cell-based, mouse; settings: for Relative TGF-β activity, fold change compared with vehicle: cell reporter assay; for TGF-β agonist activity: data of FIGS. 1A-1J
Method: All compounds were tested twice, in duplicate, using the MFB-F11 cell line. 80 compounds were selected for further study based on induction of the reporter gene in any of the replicates. These compounds were tested again in MFB-F11 or C6-H4 cells, either alone or in the presence of 100 pg/ml of TGF-β1, to test for synergistic activities.

[2] = test system: fibroblasts lacking Smad2, Smad3 or Smad4; assay: SBE reporter signaling in fibroblasts lacking elements of the TGF-β signaling pathway; type: cell-based; settings: for Signaling in the absence of Smad4: Smad4-lacking fibroblasts, FIG. 2D
Source text: To understand how the TGF-β signaling agonists function and identify molecular genetic targets in cells, fibroblasts lacking different elements of the TGF-β3 signaling pathway, including Smad2, Smad3, and Smad4, were used in combination with plasmids encoding different inhibitors of the TGF-β signaling pathway to study TGF-β agonists in different backgrounds. For reference, the canonical TGF-β signaling pathway is illustrated in FIG. 2A. The biological actions of TGF-β1 are mediated through interactions with the type 2 TGF beta receptor (TBR2) 2 and the type I TGF beta receptor (TBRI) 3. Betaglycan 4 may participate in the binding of TGF-β1. Receptor activation leads to the phosphorylation of Smad proteins, such as Smad 2/3 5 and Smad 4 6, which translocate to the nucleus 7 to bind to the Smad DNA-binding element (SBE) 8, present in numerous genes, in combination with transcription factors (TF) 9. Smad 7 10 is inhibitory with respect to Smad 2/3 5 phosphorylation. Alternative signaling involves p38 11 and the MAP kinase pathway. TAB1 12 activates TAK1 13, which activates p38 11.
Because Smad2 and Smad3 can substitute for each other, results with Smad2 or Smad3 knock-out fibroblasts were more difficult to interpret. Nonetheless, the synergistic effect of TGF-β1 and 11H was blocked in the absence of Smad2 (FIG. 2B) or Smad3 (not shown). In these assays, signaling is reported via SBE elements, which are specific elements that bind Smad proteins. Thus, the 11H compound must signal through this element. Without being limited to theory, it is believed that the 3A compound functions as a competitive agonist of Smad binding to the SBE, representing a novel target and mode of action.

[3] = Dissolution in PBS; type: physicochemical
Method: (§1) SBE-luc mice (T9-7F), 2-4 months of age, 4-5 mice per group, were given either the 11H compound at 30 mg/kg via i.p. injections, or PBS as a control. The 11H compound was completely dissolved in PBS at the concentration of 3 mg/ml. This working solution was given to mice at 10 μl/g body weight to achieve the desired level of 30 mg/kg. Five hours following drug or PBS injection, mice were anesthetized with chloral hydrate and perfused with saline. Brains were dissected and snap-frozen. Hippocampal tissues were homogenized in 100 μl of 1× luciferase assay buffer and 20 μl of the resulting supernatant was used for luciferase assays.

[4] = test system: TGF-β reporter gene in hippocampus; assay: Luciferase activity in SBE-luc mouse hippocampus; type: in vivo; settings: 30 mg/kg i.p.; five hours after injection; SBE-luc mice
Method: In another experiment performed to asses the ability of the present compounds to activate TGF-β signaling in animals, SBE-luc mice were given either PBS or the 11H compound via i.p. injections as described in Example 10. Following drug or PBS injection, mice were anesthetized with chloral hydrate and perfused with saline. Brains were dissected and snap-frozen. Hippocampal tissues were assayed for luciferase activity.
as §1

[5] = test system: primary hippocampal neurons from E16 mouse embryos; type: cell-based; settings: Aβ oligomers inducing 50-70% cell death; 13A04 3 μM, TGF-β1 10 ng/ml; 24 hours
Method: (§2) FIG. 1H is a graph showing the relative amount of surviving 6-7 DIV hippocampal neurons of E16 mice following exposure to culture medium (CM) alone, 13A04 (3 μM), or CM containing Aβ at 2 or 5 μM with TGF-β1 (10 ng/ml) or 13A04 (3 μM). After 24 hours, cultures were fixed and surviving cells were counted. Data represent mean±SEM, n=3-7 fields counted per plate. All conditions were compared to Aβ using the Mann-Whitney test (* p<0.05, ** p<0.01). FIG. 1I is a graph showing the relative gene expression levels of the indicated TGF-β-responsive genes induced in MFB-F11 fibroblasts stimulated with TGF-β1 (yellow) or 13A04 (blue) for 24 h. mRNA was extracted, labeled and hybridized to gene expression arrays tailored for the TGF-β pathway.
Moreover, the small-molecule TGF-β agonist was not toxic at 3 μM and 10 μM (not shown).
Primary mixed neuronal cultures are exposed to Aβ oligomers and treated with compounds (0 to 10 μM concentration) and cell survival is measured using lactate dehydrogenase (LDH) release or by counting 4,6-diamidino-2-phenylindole (DAPI)-stained cells. […] Neuritic dystrophy in 21 DIV neurons can also be measured by quantifying the tortuosity of neurites as described by Ferreira et al.^70 and modified by others. […] Further incubation of these cells with the present compounds provides a sensitive assay for neuroprotection.

[6] = test system: TGF-β signaling in hippocampal neurons; assay: RFP immunohistochemistry in SBE-lucRT reporter mice; type: in vivo, mouse
Source text: To study TGF-β signaling at the cellular level, additional reporter mice were generated, which express a fusion protein consisting of luciferase, red fluorescent protein […], and thymidine kinase (TK) under control of the SBE promoter (i.e., SBE-lucRT mice).

[7] = test system: Aβ deposition; assay: APP-T41 mice treated for 10 days, Aβ immunostaining; type: in vivo; settings: 5-month-old APP-T41 mice, i.p. for 10 days
Method: In a further experiment, a group of 5-month-old APP-T41 mice were treated with vehicle or 13A04 (i.p.) for 10 days. At this age, the mice are starting to deposit Aβ which can be quantified in brain sections using Aβ immunostaining.
Transgenic mice that overproduce FAD-mutant human APP reproduce important aspects of AD, including amyloid plaques, neurodegeneration, and cognitive deficits. APP-T41 mice which overexpress APP751^V717I, K670M/N671L in neurons develop amyloid pathology, neurodegeneration, and cognitive deficits.^43,44 Mice overexpressing human tau protein associated with familial forms of fronto-temporal dementia (a dementia characterized by extensive tangle formation) develop neurofibrillary tangles similar to the ones observed in AD and suffer from locomotor deficits around 10 months of age.^45 APP-T41 and Prp-tau^P301L mice^45 can be used to determine the in vivo efficacy of test compounds in treating AD-like diseases.
Compounds can also be tested for their ability to reverse cognitive deficits.

[8] = test system: TGF-β signaling (SBE-luc reporter) in brain; assay: Bioluminescence and tissue luciferase in SBE-luc reporter mice; type: in vivo, mouse
Source text: Transgenic mice harboring the SBE-luc reporter gene were generated and used to test the present compositions in vivo. These “reporter mice” mice express SBE-luc (i.e., “the transgene”) in all cells of the body.^1,54 Intraperitoneal injection of luciferin into SBE-luc mice produces bioluminescence generated by luciferase and photons penetrating the skull can be imaged using sensitive camera systems.^1,54
To determine whether 3A and its analogs are bioactive in vivo and able to penetrate the blood brain barrier (BBB), TGF-β1, 3A, 22B02, or 13A04 were injected into reporter mice i.p. or s.q. The animals were then sacrificed at the indicated times following injection. […] There was no obvious activation of the reporter in other organs.
Bioactivity data were confirmed by biochemical measurements of tissue luciferase in hippocampal homogenates (FIG. 3E).
Two-month old SBE-luciferase transgenic mice receive different concentrations of a test compound either s.q., i.p., or orally by gavage. […] Following administration of the test or control compounds, mice are injected with luciferin i.p. At, e.g., 2, 8, and 16 hours following injection of luciferin, the mice are imaged to detect bioluminescence as described above. Brains may be harvested 16 hours following test compound injection, and may be divided sagittally. […]

[9] = test system: TGF-β-responsive genes in MFB-F11 fibroblasts; assay: Microarray of TGF-β pathway gene expression in tgfb1−/− fibroblasts; type: cell-based, mouse; settings: 1, 5, 24 hours
Method: as §2
A microarray assay was used to identify changes in gene expression caused by stimulating tgfb1^−/− fibroblasts with TGF-β1 or 13A04. mRNA was harvested 1, 5, and 24 hours following stimulation of tgfb1^−/− fibroblasts with TGF-β1 (or control) and analyzed for differential expression of 128 genes related to TGF-β signaling, using a commercially available filter array (Superarray Bioscience Corp.; FIG. 1I). […]

[10] = test system: HDAC 1 and 2; settings: read-out: 1050 (HDAC 1 and 2 inhibition); cited from earlier work
[11] = test system: TGF-β signaling in the brain; assay: SBE-luc mice after lipopolysaccharide (LPS) administration; type: in vivo, mouse
Source text: SBE-luc mice can also be used to monitor activation of TGF-β signaling in response to glial activation after lipopolysaccharide (LPS) administration.

[12] = test system: HDAC activity in HeLa nuclear extracts (HDAC 1, HDAC 2, SIRT 1); settings: FIG. 8B
Source text: A commercially available assay was used to measure HDAC inhibitory activity of the present small-molecule compounds.

COCCN(CC(=O)N(CCc1c[nH]c2ccccc12)Cc1ccccc1)C(=O)Cc1cccs1 [Compound 3A, N-(2-(1H-indol-3-yl)ethyl)-N-benzyl-2-(N-(2-methoxyethyl)-2-(thiophen-2-yl)acetamido)acetamide]
Relative TGF-β activity, fold change compared with vehicle ([1]; 3 μM): 1.7 fold | Relative TGF-β activity, fold change compared with vehicle ([1]; 10 μM): 2.9 fold | Relative TGF-β activity, fold change compared with vehicle ([1]; 30 μM): 5.2 fold | Relative TGF-β activity, fold change compared with vehicle ([1]; 100 μM): 11.4 fold | TGF-β agonist activity [1]: TGF-β-agonists | Signaling in the absence of Smad4 [2]: not affected (or was even stronger)

C/C(=C\c1ccccc1)CN(CC1CCNCC1)C(=O)NC1CCCCC1 [Compound 11H, (E)-3-cyclohexyl-1-(2-methyl-3-phenylallyl)-1-(piperidin-4-ylmethyl)urea]
TGF-β agonist activity [1]: TGF-β-agonists | Concentration completely dissolved in PBS [3]: ≥ 3000 µg/mL | Synergistic effect with TGF-β1 in the absence of Smad2 or Smad3 ([2]; Smad2 (FIG. 2B) or Smad3 knock-out fibroblasts): blocked | Activation of the TGF-β reporter gene in hippocampi compared to PBS [4]: twice the levels

CC(C)CN(CC(=O)N(CCc1c[nH]c2ccccc12)Cc1ccccc1)C(=O)c1ccco1 [Compound 13A04]
Protection of neurons against Aβ toxicity (survival) [5]: consistently protected neurons and increased survival | TGF-β signaling in the vasculature [6]: No activation | Reporter gene and TGF-β signaling in hippocampal neurons ([6]; RFP immunohistochemistry): activates the reporter gene and TGF-β signaling in hippocampal neurons | Relative TGF-β activity, fold change compared with vehicle ([1]; 3 μM): 2.5 fold | Relative TGF-β activity, fold change compared with vehicle ([1]; 10 μM): 6.3 fold | Relative TGF-β activity, fold change compared with vehicle ([1]; 30 μM): 17.6 fold | Relative TGF-β activity, fold change compared with vehicle ([1]; 100 μM): 20.9 fold | Tolerability / side effects [7]: well tolerated and no side effects were observed | Aβ deposition versus controls ([7]; not statistically significant): trend towards reduced Aβ deposition | Reporter activation (bioluminescence) in living mice ([8]; i.p. or s.q. injection, FIG. 3D): dose-dependent manner | Expression of TGF-β signaling genes (Fos, Jun, Myc, Smad1, Smad2, Smad3, Interleukin-6) [9]: induced

N#Cc1ccc(-c2ccc(OCCCCCCC(=O)NO)cc2)cc1 [Compound A-161906]
pIC50 [10]: 8.05

CC(C(=O)O)c1ccc(-c2ccccc2)c(F)c1 (centres unmarked) [flurbiprofen]
TGF-β signaling in the brain after LPS (bioluminescence) ([11]; FIG. 4E): strongly reduced | Microglial activation after LPS ([11]; data not shown): strongly reduced

TGF-β1: recombinant transforming growth factor-β1, reference activator of the TGF-β signaling pathway
Protection of neurons against Aβ toxicity (survival) [5]: consistently protected neurons and increased survival | Signaling in the absence of Smad4 [2]: blocked or strongly inhibited | TGF-β signaling in vivo, tissue luciferase in hippocampal homogenates ([8]; peripheral administration, FIG. 3E, indicates BBB passage): activated TGF-β signaling in vivo | Expression of TGF-β signaling genes (Fos, Jun, Myc, Smad1, Smad2, Smad3, Interleukin-6) [9]: induced

trichostatin A
Reduction of HDAC activity [12]: > 90%
